Experimental findings from article PMC8588310, “Identification and Preliminary Structure-Activity Relationship Studies of 1,5-Dihydrobenzo[e][1,4]oxazepin-2(3H)-ones That Induce Differentiation of Acute Myeloid Leukemia Cells In Vitro” (Molecules, 2021) are described below.

One series in a line: Caco-2 permeability. Type of series: in vitro ADME. To be noted: human. As to the method: (§1) Determination of semi-thermodynamic solubility, metabolic stability in S9 fraction, Caco-2 permeability and PPB were performed by Cyprotex Ltd. (www.cyprotex.com, accessed on 22 October 2021) using their standard assays and as described on their website.
Background: Caco-2 cells form a polarised layer with tight junctions and transporters.

Series [1] can be described thus: Single dose PK study in male CD-1 mice. Type of series: in vivo, mouse. From the text: In order to undertake a preliminary assessment of the pharmacokinetic (PK) profile of this compound class, three compounds were deemed to have sufficient intrinsic potency, solubility and in vitro metabolic stability properties to progress into a single dose in vivo PK study. […] […] […] Nonetheless, the clearance of the three compounds was high to moderate, and at this dose the in vitro EC50 was not reached.
Male CD-1 mice were used for the PK studies, with three for each treatment. […] Blood concentration was measured by LC-MS/MS over 24 h.

The target of another series is T1, porcine neuronal tubulin (Sus scrofa, UniProt P02550+P02554).
T1 construct: performed using porcine neuronal tubulin (Cytoskeleton, Inc, Denver, CO, USA, BK006P); purchased Cytoskeleton, Inc BK006P; host or cells: porcine brain (neuronal) tissue
The series can be described thus: Microtubule (tubulin) polymerisation cell-free assay. Type of series: biochemical. To be noted: read-out: IC50, inhibition of tubulin polymerisation. On the procedure:
The microtubule polymerisation assay was performed using porcine neuronal tubulin (Cytoskeleton, Inc, Denver, CO, USA, BK006P) as an adaptation of the original method of Shelanski et al. and Lee et al. at Cytoskeleton, Inc.

Another series addresses DHODH (Homo sapiens, UniProt Q02127). The series can be described thus: Test against DHODH. Type of series: biochemical. To be noted: testing concentrations from 1 to 10 μM.
The next series has as its system panel of kinases. The series can be described thus: Test against a panel of kinases. To be noted: testing concentrations from 1 to 10 μM. Format: biochemical.
Series [2] can be described thus: Metabolic stability in mouse S9 fraction. Format: in vitro ADME. To be noted: ER = Clint/species flow rate (mice: 90 mL/min/kg). On the procedure: as §1
[22] Extraction ratio (ER) is calculated as the measured intrinsic clearance over the hepatic blood flow of each species (90 mL/min/kg for mice). It has the advantage over other parameters (half-life, clearance) that it is independent of the species used

Another series relates to HL-60 cells. Put plainly: CD11b expression assay by flow cytometry in HL-60 cells. Format: cell-based, human. On the procedure: Cells were treated with 1000 structurally diverse small molecules selected from a commercial library. A single point testing concentration of 10 µM was used. After 4 days, cells were stained with a CD11b antibody and analysed using flow cytometry. Compounds upregulating CD11b expression greater than 10% in at least three of the cell lines were considered as potential hits. Hit confirmation was undertaken as follows: first, the hit was re-tested at 10 µM both with the CD11b antibody and an isotype control to account for nonspecific binding. Secondly, the effect of the hit on cell proliferation and viability was evaluated through staining with DAPI to evaluate the number of dead cells, and with acridine orange to detect total cell numbers. Thirdly, the induction of differentiation caused by the compounds was confirmed through morphology assessment with Giemsa staining. Finally, the molecule was resynthesised and fully characterised to confirm structural authenticity. This fresh sample was then retested in the CD11b assay to generate a concentration-response curve. The study of proliferation and morphology was performed on a panel of six cell lines: HL-60, THP-1, OCI-AML3, KG-1, Kasumi-1 and ME-1.
Thus, structure-activity relationship studies were initiated, where the potency of the new analogues was evaluated through concentration-response testing using the CD11b assay in HL-60 cells. Lipophilic efficiency (LipE), which also accounts for lipophilicity, was also used to compare the quality of the analogues. Even though multiple parameters can influence activity in a cell-based assay, LipE is a useful guide to compare analogues.
PE mouse-anti-human-CD11b/Mac-1 (ICRF44, Cat 555388) and PE-mouse-IgG1-κ-isotype control (MOPC-21, Cat 555749) were purchased from BD Bioscience. Cells were suspended in 100 μL growth media (RPMI + 10% FBS + 1% L-glutamine) at a density of 2 × 10^4 cells/well of a V-bottom 96 well plate (Corning, Cat 3894) and grown for 96 h in the presence of compound at the required concentration. After 96 h, the plate was centrifuged, media was removed, and cells were resuspended in 50 µL of blocking buffer (IMDM, no phenol red + 10% FBS) containing 2.5 μL of either CD11b or isotype control antibody and incubated on ice in the dark for 20 min. Cells were washed twice in 200 μL of staining buffer (IMDM, no phenol red + 1% FBS) before being resuspended in 200 μL of staining buffer containing 1 μg/mL of DAPI to help identify dead cells. Flow cytometry data were collected on an Attune NxT and analysed using the Attune NxT software (Life Technologies).

The next series has as its target T2, FLT3 (Homo sapiens, UniProt P36888).
T2 sequence (P36888 27-993): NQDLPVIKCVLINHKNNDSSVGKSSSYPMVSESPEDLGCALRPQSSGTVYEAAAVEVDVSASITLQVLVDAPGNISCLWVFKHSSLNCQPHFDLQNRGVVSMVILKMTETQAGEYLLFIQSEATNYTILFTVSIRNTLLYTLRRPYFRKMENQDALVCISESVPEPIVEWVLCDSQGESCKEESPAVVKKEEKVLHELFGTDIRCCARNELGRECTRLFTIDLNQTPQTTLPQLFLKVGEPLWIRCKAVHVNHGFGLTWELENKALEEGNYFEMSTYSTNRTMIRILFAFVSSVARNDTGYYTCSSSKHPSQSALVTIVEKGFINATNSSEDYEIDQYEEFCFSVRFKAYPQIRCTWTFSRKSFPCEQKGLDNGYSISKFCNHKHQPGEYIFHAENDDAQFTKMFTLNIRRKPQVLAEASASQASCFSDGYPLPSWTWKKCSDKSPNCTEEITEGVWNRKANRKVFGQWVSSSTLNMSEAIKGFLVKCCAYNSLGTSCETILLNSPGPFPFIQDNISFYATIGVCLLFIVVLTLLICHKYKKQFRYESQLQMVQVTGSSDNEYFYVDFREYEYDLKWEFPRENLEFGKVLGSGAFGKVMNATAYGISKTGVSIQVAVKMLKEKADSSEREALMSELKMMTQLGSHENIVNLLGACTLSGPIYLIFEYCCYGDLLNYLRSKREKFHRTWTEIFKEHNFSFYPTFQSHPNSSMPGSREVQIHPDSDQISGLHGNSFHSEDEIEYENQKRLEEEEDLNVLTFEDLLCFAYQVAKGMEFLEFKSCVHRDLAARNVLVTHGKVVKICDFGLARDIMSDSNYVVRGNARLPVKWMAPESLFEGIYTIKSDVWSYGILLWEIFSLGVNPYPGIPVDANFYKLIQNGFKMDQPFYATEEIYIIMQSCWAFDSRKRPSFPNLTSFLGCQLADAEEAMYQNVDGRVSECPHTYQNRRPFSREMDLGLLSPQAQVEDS
Put plainly: Test against FLT3. Format: biochemical. To be noted: testing concentrations from 1 to 10 μM.

A short description of another series: Plasma protein binding. Format: in vitro ADME. The conditions noted are these: % unbound, read-out: PPB, unbound. As to the method: as §1
Series [3] in a line: Semi-thermodynamic aqueous solubility. The conditions noted are these: aqueous (buffer or water not specified), thermodynamic from solid. Type of series: physicochemical. On the procedure:
as §1

The mark [4] stands for this setting: mouse, whole blood, single dose 3 mg/kg po, blood.

T1 sequence (P02550 whole entry): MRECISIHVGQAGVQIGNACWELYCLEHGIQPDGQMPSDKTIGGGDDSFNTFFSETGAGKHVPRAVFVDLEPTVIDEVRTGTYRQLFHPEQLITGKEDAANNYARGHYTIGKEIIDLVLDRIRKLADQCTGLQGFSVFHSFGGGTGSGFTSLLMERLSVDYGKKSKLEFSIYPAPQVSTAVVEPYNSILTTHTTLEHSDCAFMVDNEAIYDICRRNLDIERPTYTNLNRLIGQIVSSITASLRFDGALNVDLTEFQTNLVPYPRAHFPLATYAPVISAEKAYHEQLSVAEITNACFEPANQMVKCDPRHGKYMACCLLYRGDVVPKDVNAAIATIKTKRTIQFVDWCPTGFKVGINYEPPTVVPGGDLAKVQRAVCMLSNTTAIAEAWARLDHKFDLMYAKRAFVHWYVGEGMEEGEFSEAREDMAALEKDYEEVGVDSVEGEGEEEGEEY
T1 sequence (P02554 whole entry): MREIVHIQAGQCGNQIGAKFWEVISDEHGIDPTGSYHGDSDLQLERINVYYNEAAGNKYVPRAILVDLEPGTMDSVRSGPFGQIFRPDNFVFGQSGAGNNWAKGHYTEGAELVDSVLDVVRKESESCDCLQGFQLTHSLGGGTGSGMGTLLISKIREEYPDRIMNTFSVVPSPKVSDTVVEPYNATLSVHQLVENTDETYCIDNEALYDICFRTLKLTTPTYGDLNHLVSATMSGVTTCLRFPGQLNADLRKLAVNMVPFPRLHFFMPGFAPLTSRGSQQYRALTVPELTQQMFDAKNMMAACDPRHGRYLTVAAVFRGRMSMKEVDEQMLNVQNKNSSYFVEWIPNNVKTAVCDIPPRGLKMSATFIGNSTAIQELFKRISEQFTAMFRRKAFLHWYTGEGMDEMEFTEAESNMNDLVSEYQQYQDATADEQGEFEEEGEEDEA
DHODH, sequence (Q02127 whole entry, species assumed): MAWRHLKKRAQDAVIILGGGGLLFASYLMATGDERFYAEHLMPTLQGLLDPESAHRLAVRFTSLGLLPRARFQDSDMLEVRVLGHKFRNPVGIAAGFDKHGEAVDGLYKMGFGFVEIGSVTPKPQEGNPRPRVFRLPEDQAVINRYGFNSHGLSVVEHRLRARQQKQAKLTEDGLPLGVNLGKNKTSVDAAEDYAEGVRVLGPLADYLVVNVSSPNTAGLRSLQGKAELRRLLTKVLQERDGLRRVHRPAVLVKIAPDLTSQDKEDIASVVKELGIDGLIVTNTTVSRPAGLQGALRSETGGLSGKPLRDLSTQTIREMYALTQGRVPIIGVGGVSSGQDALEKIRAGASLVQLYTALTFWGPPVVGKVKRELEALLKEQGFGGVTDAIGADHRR

In the case of `CC(C)N1C(=O)COCc2ccc(-c3cccc(NS(C)(=O)=O)c3)cc21` [OXS007002, N-(3-(1-Isopropyl-2-oxo-1,2,3,5-tetrahydrobenzo[e][1,4]oxazepin-8-yl)phenyl)methanesulfonamide], the efflux ratio in “Caco-2 permeability” (Caco-2, read-out: EfR, efflux ratio (Caco-2)) came out at 1.3. This compound also came in with a Papp in the series “Caco-2 permeability” (Caco-2 cell permeability) of 31 ×10⁻⁶ cm/s. Besides, in [1] (mouse, whole blood, 3 mg/kg po vs 0.33 mg/kg iv), the bioavailability stood at 28%. The same compound had a half-life in [1] (mouse, whole blood, single dose 3 mg/kg po and 0.33 mg/kg iv, blood, route of parameter not given) of 4.9 h. Besides, in series [1] (setting [4]), the Cmax worked out at 104 ng/mL and the Tmax turned out to be 0.42 h. The Vd/F in [1] (mouse, whole blood, single dose 3 mg/kg po, blood, read-out: Vz/F) was 101 L/kg. In addition, the Clobs in series [1] (single dose 0.33 mg/kg iv, blood) came out at 73 mL/min/kg. Further, the Clobs/F in series [1] (single dose 3 mg/kg po, blood) was determined as 258 mL/min/kg. Also, on porcine neuronal tubulin, the IC50 was found to be 3600 nM. The “Activity against DHODH” value on DHODH was “inactive”. In the series with panel of kinases, the “Activity against a panel of kinases” value was “inactive”. Further, in [2], the “ER in mS9 (extraction ratio)” value came out at 0.33. The EC50 with HL-60 cells (Homo sapiens, HL-60, 96 h, HL-60 cells, 4-day (96 h) treatment, CD11b upregulation, read-out: EC50 [nM], %CD11b response in HL60 cells) was found to be 620 nM. In the series with HL-60 cells (LipE = -LogEC50-cLogP, EC50 of CD11b assay in HL-60), the “LipE (lipophilic efficiency)” value worked out at 4.5. Moreover, the “Activity against FLT3” value at FLT3 was “inactive”. Moreover, in “Plasma protein binding”, the fraction unbound amounted to 0.11. The solubility (thermodynamic) in series [3] is > 200 µM.

Usually Papp stands for the rate of passage across a membrane or cell layer, normalised by area and donor concentration. A higher Papp goes with fast passage. A word on the bioavailability: it is the share of a dose that reaches the circulation, judged against a reference dose that is usually intravenous. The low end stands for little systemic uptake, the high end for much systemic uptake. The term half-life denotes the time in which the quantity being followed falls by half. A word on the Cmax: it is the highest concentration seen after dosing. Usually Tmax stands for the time from dosing to the highest level. The term IC50 denotes the concentration that gives 50% inhibition. One may read the EC50 as the concentration that produces a half-maximal response. By thermodynamic solubility is commonly meant the concentration in solution at equilibrium with solid.
